Results reported in US11370779B2, “Pharmaceutical composition for preventing or treating acute myeloid leukemia or metastatic breast cancer” (PELEMED CO., LTD., priority 2017, dated 2022).
Structures can show the parent of a compound that is named as a salt.

Columns and labels:
MV4;11 cells = assay: Cell viability, EZ-Cytox tetrazolium assay, MV4;11; format: cell-based, human; settings: Homo sapiens, MV4-11, 72 hours; for IC50: Table 1; for GI50: read-out: GI50(nM) MV4;11
Procedure: The cultured cells were incubated at 3° C. with 5% CO2.
(§1) Cell viability was assessed by a tetrazolium-based assay using the EZ-Cytox Cell Viability Assay kit (DaeilLab, Korea). Briefly, 2,000 to 15,000 cells were plated in 96-well plates in 100 μl of medium. The next day, the cells were treated with compounds together with dimethyl sulfoxide (DMSO) as a negative control. Three days (72 hours) after the drug addition, 15 μl of the EZ-Cytox kit reagent was added to each well of the 96-well plate and then incubated at 37° C. in a humidified CO2 incubator for 4 hours. After incubation, the optical density (OD) was measured at a wavelength of 450 nm using a Victor multilabel reader (Perkin Elmer, Waltham, Mass., USA).

FLT3 kinase = FLT3 kinase (Homo sapiens (Human), UniProt P36888); assay: In vitro FLT3 kinase HTRF assay (Example 2); format: biochemical; settings: Table 1; HTRF, recombinant FLT3 kinase domain, 500 μM ATP
Sequence of FLT3 kinase (P36888 610-943): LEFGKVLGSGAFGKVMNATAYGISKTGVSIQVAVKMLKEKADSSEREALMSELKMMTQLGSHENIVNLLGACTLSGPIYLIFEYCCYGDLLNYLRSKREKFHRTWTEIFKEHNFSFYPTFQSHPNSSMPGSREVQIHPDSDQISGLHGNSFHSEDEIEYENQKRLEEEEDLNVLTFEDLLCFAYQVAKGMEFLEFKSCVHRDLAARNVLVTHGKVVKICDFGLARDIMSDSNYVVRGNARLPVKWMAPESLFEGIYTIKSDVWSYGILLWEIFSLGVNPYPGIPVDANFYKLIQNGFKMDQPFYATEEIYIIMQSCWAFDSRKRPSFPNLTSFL
Procedure: Inhibition of the FLT3 kinase activity was measured using homogeneous, time-resolved fluorescence (HTRF) assays. Recombinant proteins containing the FLT3 kinase domain were purchased from Carna biosciences (Japan). Optimal enzyme, ATP, and substrate concentrations were established using the HTRF KinEASE kit (Cisbio, France) according to the manufacturer's instructions. The FLT3 enzymes were mixed in sequence with diluted compounds and peptide substrates in a kinase reaction buffer (50 mM HEPES (pH 7.0), 500 μM ATP, 0.1 mM sodium orthovanadate, 5 mM MgCl2, 1 mM DTT, 0.01% bovine serum albumin (BSA), and 0.02% NaN3). After the addition of the reagents for detection, the TR-FRET signal was measured using a Victor multilabel reader (Perkin Elmer, Waltham, Mass., USA). […] JAK2, JAK3, cMET, and RET in vitro kinase assays were also performed using the HTRF assay.

MDA-MB-231 = assay: Cell viability, EZ-Cytox tetrazolium assay, MDA-MB-231; format: cell-based, human; settings: Homo sapiens, MDA-MB-231; 72 hours
Procedure: MDA-MB-231 (metastatic breast cancer, ATCC HTB-26), Jurkat (human acute T lymphocytic leukemia, ATCC TIB-152), and K-562 (human chronic myelogenous leukemia, ATCC CCL-243) cells were cultured in RPMI-1640 (Sigma Co.). MCF7 (human breast adenocarcinoma, ATCC HTB-22) and PC-3 (human prostate adenocarcinoma, ATCC CRL-1435) cells were cultured in DMEM (Sigma Co.) medium supplemented with 10% fetal bovine serum and 1% penicillin/streptomycin. The cultured cells were incubated at 3° C. with 5% CO2.
as §1, with “USA). The IC50 was calculated by nonlinear regression using Prism version 5.01 (GraphPad, La Jolla, Calif., USA).” for “USA).”

SMILES | IC50 (MV4;11 cells) | IC50 (FLT3 kinase) | GI50 (MDA-MB-231) | GI50 (MV4;11 cells)
COC(=O)c1ccc2c(c1)/C(=C1/Nc3ccccc3/C1=N\OCCBr)C(=O)N2 [Compound 2, Methyl (2Z,3E)-3-((2-bromoethoxy)imino)-2′-oxo-[2,3′-biindolinylidene]-5′-carboxylate] | 51 nM | 19 nM | – | –
COC(=O)c1ccc2c(c1)/C(=C1/Nc3ccccc3/C1=N\OCCN)C(=O)N2 [Compound 3, Methyl (2Z,3E)-3-((2-aminoethoxy)imino)-2′-oxo-[2,3′-biindolinylidene]-5′-carboxylate hydrochloride] | 15 nM | 5 nM | – | –
COC(=O)c1ccc2c(c1)/C(=C1/Nc3ccccc3/C1=N\OCCN1CCN(C)CC1)C(=O)N2 [Compound 5, Methyl (2Z,3E)-3-((2-(4-methylpiperazin-1-yl)ethoxy)imino)-2′-oxo-[2,3′-biindolinylidene]-5′-carboxylate dihydrochloride] | 11 nM | – | – | –
COC(=O)c1ccc2c(c1)/C(=C1/Nc3ccccc3/C1=N\OCCN1CCOCC1)C(=O)N2 [Compound 6, Methyl (2Z,3E)-3-((2-morpholinoethoxy)imino)-2′-oxo-[2,3′-biindolinylidene]-5′-carboxylate hydrochloride] | 53 nM | – | – | –
CN1CCN(CCO/N=C2/C(=C3/C(=O)Nc4ccc([N+](=O)[O-])cc43)Nc3ccc(O)cc32)CC1 [Compound 14, (2Z,3E)-5-hydroxy-3-((2-(4-methylpiperazin-1-yl)ethoxy)imino)-5′-nitro-[2,3′-biindolinylidene]-2′-one dihydrochloride] | – | – | 29.1 nM | 50 nM
NCCO/N=C1/C(=C2/C(=O)Nc3ccc([N+](=O)[O-])cc32)Nc2ccccc21 [Compound 15, (2Z,3E)-3-((2-aminoethoxy)imino)-5′-nitro-[2,3′-biindolinylidene]-2′-one hydrochloride] | – | – | > 1 nM | –
O=C1Nc2ccc([N+](=O)[O-])cc2/C1=C1/Nc2ccccc2/C1=N\OCCN1CCNCC1 [Compound 16, (2Z,3E)-5′-nitro-3-((2-(piperazin-1-yl)ethoxy)imino)-[2,3′-biindolinylidene]-2′-one dihydrochloride] | – | – | 74.3 nM | 7.01 nM
O=C1Nc2ccc([N+](=O)[O-])cc2/C1=C1/Nc2ccc(F)cc2/C1=N\OCCN1CCNCC1 [Compound 17, (2Z,3E)-5-fluoro-5′-nitro-3-((2-(piperazin-1-yl)ethoxy)imino)-[2,3′-biindolinylidene]-2′-one dihydrochloride] | – | – | 88.8 nM | 10.2 nM
CN1CCN(CCO/N=C2/C(=C3/C(=O)Nc4ccc([N+](=O)[O-])cc43)Nc3ccc(F)cc32)CC1 [Compound 18, (2Z,3E)-5-fluoro-3-((2-(4-methylpiperazin-1-yl)ethoxy)imino)-5′-nitro-[2,3′-biindolinylidene]-2′-one dihydrochloride] | – | – | 69.7 nM | 118 nM
O=C1Nc2ccc([N+](=O)[O-])cc2/C1=C1/Nc2ccc(F)cc2/C1=N\OCCN1CCCCC1 [Compound 19, (2Z,3E)-5-fluoro-5′-nitro-3-((2-(piperidin-1-yl)ethoxy)imino)-[2,3′-biindolinylidene]-2′-one hydrochloride] | – | – | 804 nM | 1.49 nM
O=C1Nc2ccc([N+](=O)[O-])cc2/C1=C1/Nc2ccc(F)cc2/C1=N\OCCN1CCCC1 [Compound 20, (2Z,3E)-5-fluoro-5′-nitro-3-((2-(pyrrolidin-1-yl)ethoxy)imino)-[2,3′-biindolinylidene]-2′-one hydrochloride] | – | – | 144 nM | 447 nM
CN1CCN(CCO/N=C2/C(=C3/C(=O)Nc4ccc(F)cc43)Nc3ccc(F)cc32)CC1 [Compound 22, (2Z,3E)-5,5′-difluoro-3-((2-(4-methylpiperazin-1-yl)ethoxy)imino)-[2,3′-biindolinylidene]-2′-one dihydrochloride] | – | – | 600 nM | –
O=C1Nc2ccc(F)cc2/C1=C1/Nc2ccc(F)cc2/C1=N\OCCN1CCCCC1 [Compound 23, (2Z,3E)-5,5′-difluoro-3-((2-(piperidin-1-yl)ethoxy)imino)-[2,3′-biindolinylidene]-2′-one hydrochloride] | – | – | > 1 nM | 3.19 nM
O=C1Nc2ccc(F)cc2/C1=C1/Nc2ccc(F)cc2/C1=N\OCCN1CCCC1 [Compound 24, (2Z,3E)-5,5′-difluoro-3-((2-(pyrrolidin-1-yl)ethoxy)imino)-[2,3′-biindolinylidene]-2′-one hydrochloride] | – | – | 347 nM | 634 nM
NC1CCN(CCO/N=C2/C(=C3/C(=O)Nc4ccc(F)cc43)Nc3ccc(F)cc32)CC1 [Compound 25, (2Z,3E)-3-((2-(4-aminopiperidin-1-yl)ethoxy)imino)-5,5′-difluoro-[2,3′-biindolinylidene]-2′-one dihydrochloride] | – | – | > 1 nM | 85.7 nM
CN1CCN(CCO/N=C2/C(=C3/C(=O)Nc4ccccc43)Nc3ccccc32)CC1 [Compound 29, (2Z,3E)-3-((2-(4-methylpiperazin-1-yl)ethoxy)imino)-[2,3′-biindolinylidene]-2′-one dihydrochloride] | – | – | 483 nM | 54.8 nM
O=C1Nc2ccccc2/C1=C1/Nc2ccccc2/C1=N\OCCN1CCCCC1 [Compound 30, (2Z,3E)-3-((2-(piperidin-1-yl)ethoxy)imino)-[2,3′-biindolinylidene]-2′-one hydrochloride] | – | – | > 1 nM | 138 nM
O=C1Nc2ccccc2/C1=C1/Nc2ccccc2/C1=N\OCCN1CCCC1 [Compound 31, (2Z,3E)-3-((2-(pyrrolidin-1-yl)ethoxy)imino)-[2,3′-biindolinylidene]-2′-one hydrochloride] | – | – | 313 nM | 104 nM
O=C1Nc2ccc(F)cc2/C1=C1/Nc2ccccc2/C1=N\OCCN1CCCCC1 [Compound 35, (2Z,3E)-5′-fluoro-3-((2-(piperidin-1-yl)ethoxy)imino)-[2,3′-biindolinylidene]-2′-one hydrochloride] | – | – | 805 nM | 263 nM
O=C1Nc2ccc(Cl)cc2/C1=C1/Nc2ccccc2/C1=N\OCCN1CCNCC1 [Compound 38, (2Z,3E)-5′-chloro-3-((2-(piperazin-1-yl)ethoxy)imino)-[2,3′-biindolinylidene]-2′-one dihydrochloride] | – | – | – | 11 nM
CN1CCN(CCO/N=C2/C(=C3/C(=O)Nc4ccc(Cl)cc43)Nc3ccccc32)CC1 [Compound 39, (2Z,3E)-5′-chloro-3-((2-(4-methylpiperazin-1-yl)ethoxy)imino)-[2,3′-biindolinylidene]-2′-one dihydrochloride] | – | – | – | 37 nM
O=C1Nc2ccc(Br)cc2/C1=C1/Nc2ccccc2/C1=N\OCCN1CCNCC1 [Compound 40, (2Z,3E)-5′-bromo-3-((2-(piperazin-1-yl)ethoxy)imino)-[2,3′-biindolinylidene]-2′-one dihydrochloride] | – | – | – | 10 nM
O=C1Nc2ccc(I)cc2/C1=C1/Nc2ccccc2/C1=N\OCCN1CCNCC1 [Compound 42, (2Z,3E)-5′-iodo-3-((2-(piperazin-1-yl)ethoxy)imino)-[2,3′-biindolinylidene]-2′-one dihydrochloride] | – | – | – | 9 nM
CN1CCN(CCO/N=C2/C(=C3/C(=O)Nc4ccc(I)cc43)Nc3ccccc32)CC1 [Compound 43, (2Z,3E)-5′-iodo-3-((2-(4-methylpiperazin-1-yl)ethoxy)imino)-[2,3′-biindolinylidene]-2′-one dihydrochloride] | – | – | – | 32 nM
COc1ccc2c(c1)/C(=C1/Nc3ccccc3/C1=N\OCCN1CCNCC1)C(=O)N2 [Compound 46, (2Z,3E)-5′-methoxy-3-((2-(piperazin-1-yl)ethoxy)imino)-[2,3′-biindolinylidene]-2′-one dihydrochloride] | – | – | – | 17 nM
COc1ccc2c(c1)/C(=C1/Nc3ccccc3/C1=N\OCCN1CCN(C)CC1)C(=O)N2 [Compound 47, (2Z,3E)-5′-methoxy-3-((2-(4-methylpiperazin-1-yl)ethoxy)imino)-[2,3′-biindolinylidene]-2′-one dihydrochloride] | – | – | – | 7 nM
